Test results: patent US20120165403A1, “METHODS OF INHIBITING THE ACTIVITY OF HSP90 AND/OR ARYL HYDROCARBON RECEPTOR” (UNIVERSITY OF ROCHESTER, priority 2004, published 2012)

Target: T1, AhR/Arnt complex (Mus musculus, UniProt P30561)
T1 construct: made in house; host or cells: TNT rabbit reticulocyte lysate
T1 sequence (P30561 10-805 limits assumed): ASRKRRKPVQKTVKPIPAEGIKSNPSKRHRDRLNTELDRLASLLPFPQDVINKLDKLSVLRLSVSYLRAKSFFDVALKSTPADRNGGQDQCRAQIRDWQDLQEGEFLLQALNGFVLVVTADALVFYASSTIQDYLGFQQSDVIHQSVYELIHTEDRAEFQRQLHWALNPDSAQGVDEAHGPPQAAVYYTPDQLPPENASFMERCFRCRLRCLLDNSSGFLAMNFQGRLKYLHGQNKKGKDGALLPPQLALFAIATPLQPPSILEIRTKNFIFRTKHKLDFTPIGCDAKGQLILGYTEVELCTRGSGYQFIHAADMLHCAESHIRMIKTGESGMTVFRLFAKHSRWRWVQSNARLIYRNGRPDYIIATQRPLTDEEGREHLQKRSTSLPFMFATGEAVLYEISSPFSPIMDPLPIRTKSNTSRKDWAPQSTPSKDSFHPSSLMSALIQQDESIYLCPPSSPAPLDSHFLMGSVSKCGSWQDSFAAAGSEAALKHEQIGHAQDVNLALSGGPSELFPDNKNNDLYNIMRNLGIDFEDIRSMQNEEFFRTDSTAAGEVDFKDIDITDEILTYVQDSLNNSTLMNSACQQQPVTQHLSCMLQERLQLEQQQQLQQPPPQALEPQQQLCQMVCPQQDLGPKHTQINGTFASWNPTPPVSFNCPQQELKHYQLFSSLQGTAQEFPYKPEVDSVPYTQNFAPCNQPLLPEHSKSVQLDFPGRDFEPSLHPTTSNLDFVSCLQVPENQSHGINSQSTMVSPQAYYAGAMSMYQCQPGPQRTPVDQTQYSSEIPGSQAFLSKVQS
Assay: AhR/Arnt complex formation by immunoprecipitation in RRL
Type: biochemical, murine
Conditions: 200 μm EGCG, with or without 1 nM TCDD, anti-AhR immunoprecipitation
From the text: Murine AhR and ARNT cDNA (obtained from J. Whitlock and O. Hankinson, respectively) were inserted into pcDNA3 (Invitrogen, Carlsbad, Calif.). Chicken hsp90 constructs (FIG. 5), c90711hsp (wild-type), c90G94D (wild-type point mutant gly94→Asp (Grenert et al., J. Biol. Chem. 272:23843-23850 (1997), which is hereby incorporated by reference in its entirety), c90D92A (wild-type point mutant Asp92→Ala (Sullivan et al., J. Biol. Chem. 268:20373-20379 (1993), which is hereby incorporated by reference in its entirety), c90N221 (wild-type truncation mutant encoding a.a. 221-728 (Sullivan et al., J. Biol. Chem. 268:20373-20379 (1993), which is hereby incorporated by reference in its entirety)), c90N303 (a.a. 303-728) and c90N538 (a.a. 538-728) were kind gifts from Dr. D. Toft (Rochester, Minn.). The C-terminal truncation mutant c900507 (a.a. 1-221) was obtained from Dr. L. Neckers (Rockville, Md.) (Grenert et al., J. Biol. Chem. 272:23843-23850 (1997); Marcu et al., J. Biol. Chem. 275:37181-37186 (2000), which are hereby incorporated by reference in their entirety). Human p23 cDNA was excised from pQE80-p23 (obtained from W. Chan Stockton, Calif.) by sequential digests using the restriction enzymes Sad (3′-end) and BamHI (5′-end) and inserted into the similarly digested pET28a (Novagen, Madison, Wis.). […]

SMILES: O=C(O[C@@H]1Cc2c(O)cc(O)cc2O[C@@H]1c1cc(O)c(O)c(O)c1)c1cc(O)c(O)c(O)c1 [EGCG, epigallocatechin gallate]
- effect on AhR/Arnt complex formation: disrupting AhR/Arnt complex formation
